Laboratory results: PubChem BioAssay (NCI)
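In this assay, cells in 96-well plates receive the compound at five concentrations for 48 hours. Endpoints are linearly interpolated between the surrounding concentrations. At the TGI there is no net growth.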

What was measured:
Test in all cases: inhibition of tumour cell growth, NCI panel, 48 h
786-0 renal = tested on: 786-0 renal
A498 renal = tested on: A498 renal
A549 NSCLC = tested on: A549 NSCLC
ACHN renal = tested on: ACHN renal
BT-549 breast = tested on: BT-549 breast
CAKI-1 renal = tested on: CAKI-1 renal
COLO 205 colon = tested on: COLO 205 colon
DU-145 prostate = tested on: DU-145 prostate
HCC-2998 colon = tested on: HCC-2998 colon
HCT-116 colon = tested on: HCT-116 colon
HCT-15 colon = tested on: HCT-15 colon
HOP-62 NSCLC = tested on: HOP-62 NSCLC
HS 578T breast = tested on: HS 578T breast
K-562 leukemia = tested on: K-562 leukemia
KM12 colon = tested on: KM12 colon
LOX IMVI melanoma = tested on: LOX IMVI melanoma
M14 melanoma = tested on: M14 melanoma
MCF7 breast = tested on: MCF7 breast
MDA-MB-231 breast = tested on: MDA-MB-231 breast
MDA-MB-435 = tested on: MDA-MB-435
MDA-N = tested on: MDA-N
MOLT-4 leukemia = tested on: MOLT-4 leukemia
NCI-H226 lung = tested on: NCI-H226 lung
NCI-H23 lung = tested on: NCI-H23 lung
NCI-H460 lung = tested on: NCI-H460 lung
NCI/ADR-RES ovarian = tested on: NCI/ADR-RES ovarian
OVCAR-3 ovarian = tested on: OVCAR-3 ovarian
OVCAR-4 ovarian = tested on: OVCAR-4 ovarian
OVCAR-5 ovarian = tested on: OVCAR-5 ovarian
OVCAR-8 ovarian = tested on: OVCAR-8 ovarian
PC-3 prostate = tested on: PC-3 prostate
RPMI-8226 leukemia = tested on: RPMI-8226 leukemia
RXF 393 renal = tested on: RXF 393 renal
SF-268 CNS = tested on: SF-268 CNS
SF-295 CNS = tested on: SF-295 CNS
SK-MEL-2 melanoma = tested on: SK-MEL-2 melanoma
SK-MEL-28 melanoma = tested on: SK-MEL-28 melanoma
SK-OV-3 ovarian = tested on: SK-OV-3 ovarian
SN12C renal = tested on: SN12C renal
SNB-19 CNS = tested on: SNB-19 CNS
SNB-75 CNS = tested on: SNB-75 CNS
SW-620 colon = tested on: SW-620 colon
T-47D breast = tested on: T-47D breast
TK-10 renal = tested on: TK-10 renal
U251 CNS = tested on: U251 CNS
UACC-257 melanoma = tested on: UACC-257 melanoma
UACC-62 melanoma = tested on: UACC-62 melanoma
UO-31 renal = tested on: UO-31 renal
CCRF-CEM leukemia = tested on: CCRF-CEM leukemia
EKVX NSCLC = tested on: EKVX NSCLC
HL-60(TB) leukemia = tested on: HL-60(TB) leukemia
HOP-92 NSCLC = tested on: HOP-92 NSCLC
HT29 colon = tested on: HT29 colon
IGROV1 ovarian = tested on: IGROV1 ovarian
MALME-3M melanoma = tested on: MALME-3M melanoma
NCI-H522 lung = tested on: NCI-H522 lung
SK-MEL-5 melanoma = tested on: SK-MEL-5 melanoma

Measured: TGI

CO[C@]12C#CC=CC#C[C@@H](O)[C@]3(CCC1)O[C@@]23c1cccc(O)c1
not listed: CCRF-CEM leukemia | EKVX NSCLC | HL-60(TB) leukemia | HOP-92 NSCLC | HT29 colon | IGROV1 ovarian | MALME-3M melanoma | NCI-H522 lung | SK-MEL-5 melanoma
> 100 µM: all other assays above

COC(=O)[C@H](Cc1c[nH]c2ccccc12)NC(=O)OCC1OC(n2cc(C)c(=O)[nH]c2=O)CC1N=[N+]=[N-] (some centres not stated)
not listed: A498 renal | SK-MEL-28 melanoma
> 100 µM: all other assays above

O=C(O)c1cccc(CN2CCCCC2)c1
not listed: SNB-75 CNS | HL-60(TB) leukemia | HOP-92 NSCLC
> 100 µM: all other assays above
